Experimental data taken from patent US20220288028A1, “A THERAPEUTIC APPROACH FOR TREATING NON-INFECTIOUS OCULAR IMMUNOINFLAMMATORY DISORDERS” (The Schepens Eye Research Institute, Inc., priority 2019, published 2022).
Where no end group is shown, it is not given here.

Columns and labels:
Foxp3^+CD4^+ Tregs = assay: Isolated Tregs co-cultured with SP, with or without NK1R antagonist (recovered Tregs); type: cell-based, mice; conditions: SP at 0.1, 1, and 10 nM in vitro; tested 0.01-10 nM
Experimental: FIGS. 3A and 3B show the results of the in vitro effect of SP on Treg cells. The normal functional Foxp3^+CD4^+ Tregs were isolated from naive mice and co-cultured with different doses of SP, e.g., at 0.01, 0.1, 1, and 10 nM in vitro. […] On the contrary, addition of the NK1R antagonist prevented the loss of Tregs (FIG. 3B).

[1] = test system: bone marrow-derived dendritic cells (BMDCs); assay: BMDC maturation (MHC II expression) in the presence of SP, flow cytometry; type: cell-based, C57BL/6 mice; conditions: SP 25, 50 and 100 μg/mL for 18 hours; p=0.03 and p=0.02 for 50 and 100 μg/mL vs. vehicle
Experimental: Generation of Bone Marrow-Derived Dendritic Cells (BMDCs): Long bones (femur and tibia) were harvested from C57BL/6 mice and cell suspension was prepared. Cells were incubated with Red blood cell (RBC) lysis buffer (Sigma-Aldrich, St. Louis, Mo.) at 37° C. for 10 minutes. […]
Single Cell Suspension Preparation and Flow Cytometry: Submandibular and cervical draining lymph nodes (DLNs) were harvested and single cell suspensions were prepared. […] Stained cells were examined using an LSRII Flow Cytometer (BD Biosciences, Franklin Lakes, N.J., USA), and data were analyzed using commercial Summit software (Summit v4.3; Dako Colorado, Inc., Fort Collins, Colo.).
Mature APCs play a key role in the activation of THh17 cells and the autoimmune response in DED (Barabino S. et al. Prog Retin Eye Res 2012, 31:271-85; Stevenson W, Chauhan S K, Dana R: Dry eye disease: an immune-mediated ocular surface disorder. Arch Ophthalmol 2012, 130:90-100; Hamrah P, et al. Invest Ophthalmol Vis Sci 2003, 44:581-9). Given that increased SP levels in response to desiccating stress was observed, the effect of SP on maturation of APCs was next evaluated. […]

CD4^+CD25^+Foxp3^+ Tregs = assay: Tregs co-cultured with SP with or without Spantide I: phenotype, cytokines, suppression of effector T cell proliferation; type: cell-based, C57BL/6 mice
Experimental: CD4^+CD25^+Foxp3^+ Tregs were isolated from draining lymph nodes (DLN) of naïve female C57BL/6 mice.
Isolated Tregs were co-cultured with SP (1 μM) with or without Spantide I (10 μM) for 48 hours. Phenotype of Tregs was evaluated by flow cytometry, and the capacity of Tregs to suppress effector T cell proliferation was investigated.

[2] = test system: corneal epithelial wound healing; conditions: topical application, diabetic mice; cited from earlier work

SP: substance P, an 11-amino acid neuropeptide, endogenous ligand of NK1R (RPKPQQFFGLM-NH2; ends and bridges not checked; UniProt P20366 58-68, looked up)
Tregs recovered after co-culture with SP (Foxp3^+CD4^+ Tregs): significantly reduced Tregs | mean fluorescence intensity (MFI) of MHC II in BMDCs [1]: significant and dose-dependent increase | expression of inhibitory molecules Foxp3, CTLA4 and PD-1 by Tregs (CD4^+CD25^+Foxp3^+ Tregs; SP 1 μM, 48 hours, in vitro): suppresses the expression | secretion of immunoregulatory cytokines (TGFβ and IL-10) by Tregs (CD4^+CD25^+Foxp3^+ Tregs; SP 1 μM, 48 hours, in vitro): significantly lower levels | capacity of Tregs to suppress effector T cell proliferation in vitro (CD4^+CD25^+Foxp3^+ Tregs; Tregs pre-incubated with SP): lower capacity | corneal epithelial wound healing [2]: promotes corneal epithelial wound healing
